{"source": "ChEMBL document CHEMBL3044966", "about": "“Photosynthesis limitations of grapevine after treatment with the fungicide fludioxonil” (J Agric Food Chem, 2008)", "key": {"[1]": {"test": "Inhibition of photosynthesis in Vitis vinifera cv. Pinot noir assessed as reduction in net photosynthetic rate at 30 mM measured 7 days post compound application", "type": "organism-based", "conditions": "in vivo"}, "Vitis vinifera [2]": {"system": "Vitis vinifera", "test": "Inhibition of photosynthesis in Vitis vinifera cv. Pinot noir assessed as PPFD-saturated net CO2 assimilation rate at 6 mM measured 7 days post compound application (reference value: 8.9 +/- 1.5 umol/m2/s)", "type": "organism-based", "conditions": "in vivo, 168 h, 6000 µM"}, "[3]": {"test": "Inhibition of photosynthesis in Vitis vinifera cv. Pinot noir assessed as reduction in apparent quantum yield of CO2 fixation at 1.2 to 30 mM measured 7 days post compound application", "type": "organism-based", "conditions": "in vivo"}, "Vitis vinifera [4]": {"system": "Vitis vinifera", "test": "Inhibition of photosynthesis in Vitis vinifera cv. Pinot noir assessed as increase in ratio of apparent quantum yield of photo system 2 to apparent quantum yield yield of CO2 fixation at 1.2 to 30 mM measured 7 days post compound application", "type": "organism-based", "design": "scale not given: the % may be the effect or the level left", "conditions": "in vivo, 168 h, 30000 µM"}, "[5]": {"test": "Inhibition of photosynthesis in Vitis vinifera cv. Pinot noir assessed as reduction in net photosynthetic rate at 1.2 mM measured 1 day post compound application", "type": "organism-based", "conditions": "in vivo"}, "Vitis vinifera [6]": {"system": "Vitis vinifera", "test": "Inhibition of photosynthesis in Vitis vinifera cv. Pinot noir assessed as mitochondrial respiration in the light at 6 mM measured 7 days post compound application (reference value: 3.2 +/- 0.5 umol/m2/s)", "type": "organism-based", "conditions": "in vivo, 168 h, 6000 µM"}, "Vitis vinifera [7]": {"system": "Vitis vinifera", "test": "Inhibition of photosynthesis in Vitis vinifera cv. Pinot noir assessed as light compensation point at 30 mM measured 7 days post compound application (reference value: 22.6 +/- 3.1 umol/mol)", "type": "organism-based", "conditions": "in vivo, 168 h, 30000 µM"}, "Vitis vinifera [8]": {"system": "Vitis vinifera", "test": "Inhibition of photosynthesis in Vitis vinifera cv. Pinot noir assessed as ratio of apparent quantum yield of photo system 2 to apparent quantum yield yield of CO2 fixation at 1.2 mM measured 7 days post compound application (reference value: 10 +/- 1.7 no unit)", "type": "organism-based", "conditions": "in vivo, 168 h, 1200 µM"}, "Vitis vinifera [9]": {"system": "Vitis vinifera", "test": "Inhibition of photosynthesis in Vitis vinifera cv. Pinot noir assessed as CO2 compensation point at 1.2 mM measured 7 days post compound application (reference value: 74.8 +/- 12.7 umol/mol)", "type": "organism-based", "conditions": "in vivo, 168 h, 1200 µM"}, "[10]": {"test": "Inhibition of photosynthesis in Vitis vinifera cv. Pinot noir assessed as reduction in Hill reaction activity 6 mM measured 7 days post compound application relative to untreated control", "type": "organism-based", "conditions": "in vivo"}, "Vitis vinifera [11]": {"system": "Vitis vinifera", "test": "Inhibition of photosynthesis in Vitis vinifera cv. Pinot noir assessed as ratio of apparent quantum yield of photo system 2 to apparent quantum yield yield of CO2 fixation at 6 mM measured 7 days post compound application (reference value: 10 +/- 1.7 no unit)", "type": "organism-based", "conditions": "in vivo, 168 h, 6000 µM"}, "Vitis vinifera [12]": {"system": "Vitis vinifera", "test": "Inhibition of photosynthesis in Vitis vinifera cv. Pinot noir assessed as intercellular CO2 concentration-saturated net CO2 assimilation rate at 1.2 mM measured 7 days post compound application (reference value: 11.3 +/- 0.8 umol/m2/s)", "type": "organism-based", "conditions": "in vivo, 168 h, 1200 µM"}, "photosystem 2 [13]": {"system": "photosystem 2", "test": "Inhibition of photosynthesis in Vitis vinifera cv. Pinot noir assessed as reduction in relative quantum yield of photo system 2 at 6 mM measured 7 days post compound application relative to untreated control", "type": "organism-based", "conditions": "in vivo"}, "photosystem 2 [14]": {"system": "photosystem 2", "test": "Inhibition of photosynthesis in Vitis vinifera cv. Pinot noir assessed as reduction in relative quantum yield of photo system 2 at 1.2 mM measured 7 days post compound application relative to untreated control", "type": "organism-based", "conditions": "in vivo"}, "Vitis vinifera [15]": {"system": "Vitis vinifera", "test": "Effect on total nonphotochemical quenching in Vitis vinifera cv. Pinot noir at 1.2 to 30 mM measured 7 days post compound application", "type": "ADME, organism-based", "conditions": "in vivo, 168 h, 30000 µM"}, "Vitis vinifera [16]": {"system": "Vitis vinifera", "test": "Inhibition of photosynthesis in Vitis vinifera cv. Pinot noir assessed as increase in CO2 compensation point at 30 mM measured 7 days post compound application relative to untreated control", "type": "organism-based", "conditions": "in vivo, 168 h, 30000 µM"}, "Vitis vinifera [17]": {"system": "Vitis vinifera", "test": "Inhibition of photosynthesis in Vitis vinifera cv. Pinot noir assessed as PPFD-saturated net CO2 assimilation rate at 30 mM measured 7 days post compound application (reference value: 8.9 +/- 1.5 umol/m2/s)", "type": "organism-based", "conditions": "in vivo, 168 h, 30000 µM"}, "Vitis vinifera [18]": {"system": "Vitis vinifera", "test": "Inhibition of photosynthesis in Vitis vinifera cv. Pinot noir assessed as in vivo maximum rate of rubisco carboxylation at 6 mM measured 7 days post compound application (reference value: 42.8 +/- 3.2 umol/m2/s)", "type": "organism-based", "conditions": "168 h, 6000 µM"}, "Vitis vinifera [19]": {"system": "Vitis vinifera", "test": "Inhibition of photosynthesis in Vitis vinifera cv. Pinot noir assessed as increase in mitochondrial respiration in the light at 30 mM measured 7 days post compound application relative to untreated control", "type": "organism-based", "conditions": "in vivo, 168 h, 30000 µM"}, "Vitis vinifera [20]": {"system": "Vitis vinifera", "test": "Toxicity in Vitis vinifera cv. Pinot noir assessed as effect on gas exchanges at 1.2 to 30 mM measured 14 days post compound application", "type": "organism-based", "conditions": "in vivo, 336 h, 30000 µM"}, "Vitis vinifera [21]": {"system": "Vitis vinifera", "test": "Inhibition of photosynthesis in Vitis vinifera cv. Pinot noir assessed as apparent quantum yield of CO2 fixation at 6 mM measured 7 days post compound application (reference value: 0.07 +/- 0.01 no unit) umol/m2/s)", "type": "organism-based", "conditions": "in vivo, 168 h, 6000 µM"}, "Vitis vinifera [22]": {"system": "Vitis vinifera", "test": "Inhibition of photosynthesis in Vitis vinifera cv. Pinot noir assessed as in vivo maximum rate of rubisco carboxylation at 1.2 mM measured 7 days post compound application (reference value: 42.8 +/- 3.2 umol/m2/s)", "type": "organism-based", "conditions": "168 h, 1200 µM"}, "Vitis vinifera [23]": {"system": "Vitis vinifera", "test": "Toxicity in Vitis vinifera cv. Pinot noir assessed as effect on gas exchanges at 1.2 to 30 mM measured 10 days post compound application", "type": "organism-based", "conditions": "in vivo, 240 h, 30000 µM"}, "Vitis vinifera [24]": {"system": "Vitis vinifera", "test": "Effect on […] CO2 level in Vitis vinifera cv. Pinot noir at 1.2 to 30 mM measured 1 day post compound application", "type": "ADME, organism-based", "conditions": "in vivo, 24 h, 30000 µM"}, "Vitis vinifera [25]": {"system": "Vitis vinifera", "test": "Inhibition of photosynthesis in Vitis vinifera cv. Pinot noir assessed as dark respiration at 6 mM measured 7 days post compound application (reference value: 1.6 +/- 0.0 umol/m2/s)", "type": "organism-based", "conditions": "in vivo, 168 h, 6000 µM"}, "Vitis vinifera [26]": {"system": "Vitis vinifera", "test": "Inhibition of photosynthesis in Vitis vinifera cv. Pinot noir assessed as reduction in net photosynthetic rate at 6 mM measured 1 day post compound application", "type": "organism-based", "conditions": "in vivo, 24 h, 6000 µM"}, "Vitis vinifera [27]": {"system": "Vitis vinifera", "test": "Inhibition of photosynthesis in Vitis vinifera cv. Pinot noir assessed as in vivo maximum rate of rubisco carboxylation at 30 mM measured 7 days post compound application (reference value: 42.8 +/- 3.2 umol/m2/s)", "type": "organism-based", "conditions": "168 h, 30000 µM"}}}
{"smiles": "N#Cc1c[nH]cc1-c1cccc2c1OC(F)(F)O2", "note": "[FLUDIOXONIL]", "values": [{"measurement": "inhibition at 168 h, 30000 µM", "setting": "[1]", "result": 38, "unit": "%"}, {"measurement": "Activity", "setting": "Vitis vinifera [2]", "result": 7.6, "unit": "micromol/m2/s"}, {"measurement": "inhibition at 168 h, up to 30000 µM", "setting": "[3]", "result": 30, "unit": "%"}, {"measurement": "Activity", "setting": "Vitis vinifera [4]", "result": 50, "unit": "%"}, {"measurement": "inhibition at 24 h, 1200 µM", "setting": "[5]", "result": 30, "unit": "%"}, {"measurement": "Activity", "setting": "Vitis vinifera [6]", "result": 3.6, "unit": "micromol/m2/s"}, {"measurement": "Activity", "setting": "Vitis vinifera [7]", "result": 37, "unit": "umol/mol"}, {"measurement": "Ratio", "setting": "Vitis vinifera [8]", "result": 17.4}, {"measurement": "Activity", "setting": "Vitis vinifera [9]", "result": 84.9, "unit": "umol/mol"}, {"measurement": "inhibition at 168 h, 6000 µM", "setting": "[10]", "result": 36, "unit": "%"}, {"measurement": "Ratio", "setting": "Vitis vinifera [11]", "result": 16.3}, {"measurement": "Activity", "setting": "Vitis vinifera [12]", "result": 11.3, "unit": "micromol/m2/s"}, {"measurement": "inhibition at 168 h, 6000 µM", "setting": "photosystem 2 [13]", "result": 7, "unit": "%"}, {"measurement": "inhibition at 168 h, 1200 µM", "setting": "photosystem 2 [14]", "result": 10, "unit": "%"}, {"measurement": "Activity", "setting": "Vitis vinifera [15]", "result": "Non-toxic"}, {"measurement": "fold change (FC)", "setting": "Vitis vinifera [16]", "result": 3.3}, {"measurement": "Activity", "setting": "Vitis vinifera [17]", "result": 9.4, "unit": "micromol/m2/s"}, {"measurement": "Activity", "setting": "Vitis vinifera [18]", "result": 44.1, "unit": "micromol/m2/s"}, {"measurement": "fold change (FC)", "setting": "Vitis vinifera [19]", "result": 3.5}, {"measurement": "Activity", "setting": "Vitis vinifera [20]", "result": "Non-toxic"}, {"measurement": "Activity", "setting": "Vitis vinifera [21]", "result": 0.04}, {"measurement": "Activity", "setting": "Vitis vinifera [22]", "result": 38, "unit": "micromol/m2/s"}, {"measurement": "Activity", "setting": "Vitis vinifera [23]", "result": "Non-toxic"}, {"measurement": "Activity", "setting": "Vitis vinifera [24]", "result": "Non-toxic"}, {"measurement": "Activity", "setting": "Vitis vinifera [25]", "result": 1.2, "unit": "micromol/m2/s"}, {"measurement": "Activity", "setting": "Vitis vinifera [26]", "result": "Toxic"}, {"measurement": "Activity", "setting": "Vitis vinifera [27]", "result": 46.7, "unit": "micromol/m2/s"}]}
